Four compounds from patent publication EP3046573B1, “AMYLIN ANALOGUES” (Zealand Pharma A/S, priority 2013, dated 2015) can be followed below.

pEC50: −log10 of the molar value. Like-named read-outs stand apart in the source and are kept apart here. Numbered stars: 1 amine (or outer) side, 2 acyl side, 3 side chain; on linkers, the order of the positions; unused ones are H or OH. Bridge positions count the residues as written; N and C are the ends. Square brackets hold non-standard residues; d marks the D form. Peptide text beside a SMILES is read from it. * marks the point of attachment. C20 diacid = O=C(O)CCCCCCCCCCCCCCCCCCC(=O)*; Pro(4R-NH2) = N[C@H]1CN[C@H](C(=O)O)C1; γGlu = O=C(O)[C@H](CCC(=O)[*:2])N[*:1]; Hyp = O=C(O)[C@@H]1C[C@@H](O)CN1; NMeI = CC[C@H](C)[C@H](NC)C(=O)O; Aze = O=C(O)[C@@H]1CCN1; Sar = CNCC(=O)O

The target of series [1] is T1, human amylin receptor 3 (hAMYR3) consisting of hCTR2 co-expressed with human Receptor Activity Modifying Protein 3 (hRAMP3) (Homo sapiens, UniProt O60896+P30988).
T1 construct: expressed in transfected cells
T1 sequence (P30988 25-474): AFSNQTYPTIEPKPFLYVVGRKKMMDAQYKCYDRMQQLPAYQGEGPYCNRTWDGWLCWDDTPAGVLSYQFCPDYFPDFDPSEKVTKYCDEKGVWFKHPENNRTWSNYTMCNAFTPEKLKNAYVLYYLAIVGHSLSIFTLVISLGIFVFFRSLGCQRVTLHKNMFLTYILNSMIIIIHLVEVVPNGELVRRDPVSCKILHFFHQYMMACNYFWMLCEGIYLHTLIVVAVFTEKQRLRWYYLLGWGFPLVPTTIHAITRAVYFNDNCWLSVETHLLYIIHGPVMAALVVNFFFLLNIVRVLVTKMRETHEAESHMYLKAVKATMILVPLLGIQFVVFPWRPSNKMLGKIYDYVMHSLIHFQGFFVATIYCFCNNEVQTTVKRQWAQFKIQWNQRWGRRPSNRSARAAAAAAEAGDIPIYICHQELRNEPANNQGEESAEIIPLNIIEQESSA
T1 sequence (O60896 24-148 partner): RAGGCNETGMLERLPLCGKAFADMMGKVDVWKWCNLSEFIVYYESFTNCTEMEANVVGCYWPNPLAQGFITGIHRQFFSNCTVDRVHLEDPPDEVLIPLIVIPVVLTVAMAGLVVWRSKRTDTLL
Briefly: hAMYR3 assay: induction of cAMP (AlphaScreen cAMP Assay kit) in COS7 cells expressing hAMYR3. In kind it is cell-based. The essentials:
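cAMP accumulation read by AlphaScreen in lysates of RAMP-naive COS7 cells stably transfected with hCTR2 plus hRAMP3. Cells exposed to peptide dilutions for 15 min, 37° C, with 100 µM IBMX; 4PL fitting gave EC50 and efficacy relative to pramlintide.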
On the technique in general: In Alpha technology, singlet oxygen from a donor bead excites a nearby acceptor bead.

In a further series the test system is Sprague Dawley (SD) rats. Briefly: Acute food intake and body weight in normal Sprague Dawley rats. The settings on record: vehicle-corrected, dose 30 nmol/kg sc, once; for Body weight loss (%) after 96 hours: mean ± SEM, n = 8. The class given is in vivo. The essentials:
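Normal male-unspecified SD rats, n = 8 per group, given a single s.c. peptide dose of 30 nmol/kg just before dark phase, with vehicle and positive control groups. Food intake recorded at 0, 4, 7, 10, 24, 48, 72 and 96 h; body weight daily; means ± SEM.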

Series [2] can be described thus: Assessment of physical stability: fibril formation detected with Thioflavin T (ThT), lag-time. In kind it is physicochemical. The settings on record: 1 mg/ml peptide, 40 µM ThT, FND = Fibrillation not detected; for Fibrillation lag time (hours) pH 4.0 (Ac): 50 mM acetate buffer pH 4.0, 96 hours at 40°C; for Fibrillation lag time (hours) pH 7.0 (His): 50 mM histidine buffer pH 7.0, 96 hours at 40°C; for Fibrillation lag time (hours) pH 7.0 (Ph): 50 mM phosphate buffer pH 7.0, 96 hours at 40°C. The essentials:
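Test peptide at 1 mg/ml with 40 µM ThT in 50 mM phosphate (pH 7.0), 50 mM histidine (pH 7.0) or 50 mM acetate (pH 4.0), in triplicate, 40° C. for 96 h. Fluorescence read every 10 min after 300 s agitation. Lag-time (h) taken as intersection of linear fits to initial stable and growth phases.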

For `CC[C@H](C)[C@@H](C(=O)N[C@@H](CC(C)C)C(=O)N[C@@H](CO)C(=O)N[C@@H](CO)C(=O)N[C@H](C(=O)N[C@@H](CCC(=O)O)C(=O)N[C@H](C(=O)NCC(=O)N[C@@H](CO)C(=O)N[C@@H](CCC(=O)O)C(=O)N[C@H](C(=O)N1CCC[C@H]1C(N)=O)[C@@H](C)O)C(C)C)[C@@H](C)O)N(C)C(=O)[C@H](C)NC(=O)CN(C)C(=O)[C@H](Cc1ccccc1)NC(=O)[C@H](CO)NC(=O)[C@H](CO)NC(=O)[C@H](CCCNC(=N)N)NC(=O)[C@H](Cc1c[nH]cn1)NC(=O)[C@H](CC(C)C)NC(=O)[C@H](Cc1ccccc1)NC(=O)[C@H](CCC(=O)O)NC(=O)[C@H](C)NC(=O)[C@H](CC(C)C)NC(=O)[C@H](CCCNC(=N)N)NC(=O)[C@H](CCC(N)=O)NC(=O)[C@@H](NC(=O)[C@H](C)NC(=O)[C@@H]1CSSC[C@H](NC(=O)[C@H](CCCNC(=N)N)NC(=O)CC[C@H](NC(=O)CCCCCCCCCCCCCCCCCCC(=O)O)C(=O)O)C(=O)N[C@@H](CC(N)=O)C(=O)N[C@@H]([C@@H](C)O)C(=O)N[C@@H](C)C(=O)N[C@@H]([C@@H](C)O)C(=O)N1)[C@@H](C)O` [Compound 82, [19CD]-isoGlu-RC()NTATC()ATQRLAEFLHRSSF-Gly(Me)-A-Ile(Me)-LSSTEVGSETP-NH2] ({C20 diacid-γGlu}-RCNTATCATQRLAEFLHRSSF[Sar]A[NMeI]LSSTEVGSETP-NH2; disulfide 2-7), the pEC50 (commonly the EC50 on a negative log10 scale, so that one unit is a factor of ten) in series [1] (cAMP induction in COS7 cells expressing hAMYR3, average of a minimum of 3 determinations, read-out: hAMY R3 EC50) was 9.92. In the series on Sprague Dawley (SD) rats, the “Food intake inhibition (%) after 48 hours” value (“Food intake inhibition (%)” for short) is on record as 93% and the “Body weight loss (%) after 96 hours” value came to 13 ± 1.0%. In addition, in series [2], the “Fibrillation lag time (hours) pH 4.0 (Ac)” value (“Fibrillation lag time … (Ac)” for short) is on record as “FND”, the “Fibrillation lag time (hours) pH 7.0 (His)” value (“Fibrillation lag time … (His)” for short) is listed as “FND” and the “Fibrillation lag time (hours) pH 7.0 (Ph)” value (from here on “Fibrillation lag time … (Ph)”) is “FND”.

In series [1], `CC[C@H](C)[C@@H](C(=O)N[C@@H](CC(C)C)C(=O)N[C@@H](CO)C(=O)N[C@@H](CO)C(=O)N[C@H](C(=O)N[C@@H](CC(N)=O)C(=O)N[C@H](C(=O)NCC(=O)N[C@@H](CO)C(=O)N[C@@H](CC(N)=O)C(=O)N[C@H](C(=O)N1C[C@H](O)C[C@H]1C(N)=O)[C@@H](C)O)C(C)C)[C@@H](C)O)N(C)C(=O)[C@H](C)NC(=O)CN(C)C(=O)[C@H](Cc1ccccc1)NC(=O)[C@H](CC(N)=O)NC(=O)[C@H](CC(N)=O)NC(=O)[C@H](CO)NC(=O)[C@H](CO)NC(=O)[C@H](CCCNC(=N)N)NC(=O)[C@H](Cc1c[nH]cn1)NC(=O)[C@H](CC(C)C)NC(=O)[C@H](Cc1ccccc1)NC(=O)[C@H](CCC(=O)O)NC(=O)[C@H](C)NC(=O)[C@H](CC(C)C)NC(=O)[C@H](CCCNC(=N)N)NC(=O)[C@H](CCC(N)=O)NC(=O)[C@@H](NC(=O)[C@H](C)NC(=O)[C@@H]1CSSC[C@H](NC(=O)[C@H](CCCNC(=N)N)NC(=O)CC[C@H](NC(=O)CCCCCCCCCCCCCCCCCCC(=O)O)C(=O)O)C(=O)N[C@@H](CC(N)=O)C(=O)N[C@@H]([C@@H](C)O)C(=O)N[C@@H](C)C(=O)N[C@@H]([C@@H](C)O)C(=O)N1)[C@@H](C)O` [Compound 105, [19CD]-isoGlu-RC()NTATC()ATQRLAEFLHRSSNNF-Gly(Me)-A-Ile(Me)-LSSTNVGSNT-Hyp-NH2] ({C20 diacid-γGlu}-RCNTATCATQRLAEFLHRSSNNF[Sar]A[NMeI]LSSTNVGSNT[Hyp]-NH2; disulfide 2-7) gave a pEC50 of 10.04. Further, in the series with Sprague Dawley (SD) rats, the “Body weight loss (%) after 96 hours” value is given as 7 ± 2.4%. Moreover, in series [2], the “Fibrillation lag time … (Ac)” value is on record as “FND”, the “Fibrillation lag time … (His)” value is “FND” and the “Fibrillation lag time … (Ph)” value is listed as “FND”.

With `CC[C@H](C)[C@@H](C(=O)N[C@@H](CC(C)C)C(=O)N[C@@H](CO)C(=O)N[C@@H](CO)C(=O)N[C@H](C(=O)N[C@@H](CC(N)=O)C(=O)N[C@H](C(=O)NCC(=O)N[C@@H](CO)C(=O)N[C@@H](CC(N)=O)C(=O)N[C@H](C(=O)N1CC[C@H]1C(N)=O)[C@@H](C)O)C(C)C)[C@@H](C)O)N(C)C(=O)[C@H](C)NC(=O)CN(C)C(=O)[C@H](Cc1ccccc1)NC(=O)[C@H](CC(N)=O)NC(=O)[C@H](CC(N)=O)NC(=O)[C@H](CO)NC(=O)[C@H](CO)NC(=O)[C@H](CCCNC(=N)N)NC(=O)[C@H](Cc1c[nH]cn1)NC(=O)[C@H](CC(C)C)NC(=O)[C@H](Cc1ccccc1)NC(=O)[C@H](CCC(=O)O)NC(=O)[C@H](C)NC(=O)[C@H](CC(C)C)NC(=O)[C@H](CCCNC(=N)N)NC(=O)[C@H](CCC(N)=O)NC(=O)[C@@H](NC(=O)[C@H](C)NC(=O)[C@@H]1CSSC[C@H](NC(=O)[C@H](CCCNC(=N)N)NC(=O)CC[C@H](NC(=O)CCCCCCCCCCCCCCCCCCC(=O)O)C(=O)O)C(=O)N[C@@H](CC(N)=O)C(=O)N[C@@H]([C@@H](C)O)C(=O)N[C@@H](C)C(=O)N[C@@H]([C@@H](C)O)C(=O)N1)[C@@H](C)O` [Compound 107, [19CD]-isoGlu-RC()NTATC()ATQRLAEFLHRSSNNF-Gly(Me)-A-Ile(Me)-LSSTNVGSNT-Aze-NH2] ({C20 diacid-γGlu}-RCNTATCATQRLAEFLHRSSNNF[Sar]A[NMeI]LSSTNVGSNT[Aze]-NH2; disulfide 2-7), the negative logarithm of the EC50 (pEC50) in series [1] is 9.28. In the series with Sprague Dawley (SD) rats, the “Food intake inhibition (%)” value amounted to 83% and the “Body weight loss (%) after 96 hours” value turned out to be 6 ± 1.5%. In series [2], the “Fibrillation lag time … (Ac)” value is reported as “FND”, the “Fibrillation lag time … (His)” value is “FND” and the “Fibrillation lag time … (Ph)” value was 16 hours.

With `CC[C@H](C)[C@@H](C(=O)N[C@@H](CC(C)C)C(=O)N[C@@H](CO)C(=O)N[C@@H](CO)C(=O)N[C@H](C(=O)N[C@@H](CC(N)=O)C(=O)N[C@H](C(=O)NCC(=O)N[C@@H](CO)C(=O)N[C@@H](CC(N)=O)C(=O)N[C@H](C(=O)N1C[C@H](N)C[C@H]1C(N)=O)[C@@H](C)O)C(C)C)[C@@H](C)O)N(C)C(=O)[C@H](C)NC(=O)CN(C)C(=O)[C@H](Cc1ccccc1)NC(=O)[C@H](CC(N)=O)NC(=O)[C@H](CC(N)=O)NC(=O)[C@H](CO)NC(=O)[C@H](CO)NC(=O)[C@H](CCCNC(=N)N)NC(=O)[C@H](Cc1c[nH]cn1)NC(=O)[C@H](CC(C)C)NC(=O)[C@H](Cc1ccccc1)NC(=O)[C@H](CCC(=O)O)NC(=O)[C@H](C)NC(=O)[C@H](CC(C)C)NC(=O)[C@H](CCCNC(=N)N)NC(=O)[C@H](CCC(N)=O)NC(=O)[C@@H](NC(=O)[C@H](C)NC(=O)[C@@H]1CSSC[C@H](NC(=O)[C@H](CCCNC(=N)N)NC(=O)CC[C@H](NC(=O)CCCCCCCCCCCCCCCCCCC(=O)O)C(=O)O)C(=O)N[C@@H](CC(N)=O)C(=O)N[C@@H]([C@@H](C)O)C(=O)N[C@@H](C)C(=O)N[C@@H]([C@@H](C)O)C(=O)N1)[C@@H](C)O` [Compound 110, [19CD]-isoGlu-RC()NTATC()ATQRLAEFLHRSSNNF-Gly(Me)-A-Ile(Me)-LSSTNVGSNT-Apr-NH2] ({C20 diacid-γGlu}-RCNTATCATQRLAEFLHRSSNNF[Sar]A[NMeI]LSSTNVGSNT[Pro(4R-NH2)]-NH2; disulfide 2-7), the pEC50 in series [1] is 10.06. For the same compound, in the series on Sprague Dawley (SD) rats, the “Food intake inhibition (%)” value came out at 98% and the “Body weight loss (%) after 96 hours” value was determined as 11 ± 1.1%. Further, in series [2], the “Fibrillation lag time … (Ac)” value is “FND”, the “Fibrillation lag time … (His)” value is given as “FND” and the “Fibrillation lag time … (Ph)” value was “FND”.
